According to patent publication US9656953B2, “Inhibition of cell proliferation” (University of South Florida, priority 2005, dated 2017):
Entries after “also recorded” stand apart in the source; their conditions may differ.

Key:
MDA-MB-231 cells = assay: BrdU proliferation assay, MDA-MB-231; format: cell-based, human
Description: (§1) Proliferation assays. Bromodeoxyuridine (BrdU) labeling kits were obtained from Roche Biochemicals (Indianapolis, Ind.). Cells were plated in poly-D-lysine coated chamber slides at a density of 10,000 cells per well and rendered quiescent by serum starvation for 24 hours. Cells were then re-stimulated with serum in the presence or absence of the indicated drugs for 18 h. S-phase cells were visualized by microscopy and quantitated by counting 3 fields of 100 in quadruplicate.
The metastatic human breast cancer cell line MDA-MB-231 harbors a K-Ras mutation and overexpresses EGFR.

cyclin D kinase activity = assay: In vitro kinase assay, cyclin D; format: biochemical
Description: In vitro kinase assay. The kinase reaction for Raf-1 was carried out with 100 nanograms (ng) of Raf-1 (Upstate Signaling, Charlottesville, Va.), 0.5 μg of full-length Rb protein (QED Bioscience, San Diego, Calif.) as the substrate, 10 μM ATP, 10 μCi of [γ-^32P] ATP in the kinase assay buffer in the presence or absence of the drugs at 30° C. for 30 minutes. Cyclin D and E kinase assays are described in (Dasgupta 2004).

[1] = tested on: U87MG glioblastoma cell line; assay: BrdU incorporation, S-phase entry, U87MG; format: cell-based; details: null for p16 and PTEN
Description: as §1

[2] = tested on: H1650 non-small cell lung cancer cell line; assay: BrdU incorporation, S-phase entry, H1650; format: cell-based; details: EGFR mutant NSCLC
Description: as §1
Because many cancers contain more than one mutation in tumor suppressor genes or oncogenes, we determined the ability of 3a to inhibit proliferation in cell lines containing alterations in key regulatory genes.

SK-MEL-28 cells = assay: Soft agar assay, SK-MEL-28; format: cell-based
Description: (§2) Soft Agar Assay. Soft agar assays were done in triplicate in 12-well plates (Corning, Corning N.Y.). First, the bottom layer of agar (0.6%) was allowed to solidify at room temperature. Next the top layer of agar was (0.3%) was mixed with 5,000 cells per well and the indicated drug. The drugs were added twice weekly in complete media to the agar wells. Colonies were quantified by staining with MTT (3-(4,5-Dimethylthiazol-2-yl)-2,5-diphenyltetrazolium bromide) 1 mg/mL for 1 hour at 37° C.
(§3) Experiments were also carried out to examine the effect of 3a in inhibiting the adherence-independent growth of cancer cells in soft agar.

[3] = tested on: A549 cells stably expressing sh8; assay: BrdU incorporation, A549 Rb shRNA sh8; format: cell-based, human; details: 20 μM, Rb knock down
Description: as §1
To further confirm that 3a requires a functional Rb to inhibit tumor cell proliferation, A549 cells (human epithelial lung carcinoma) were stably transfected with two different shRNA constructs (sh6 and sh8) to knock down Rb expression.

Saos-2 cells = assay: BrdU incorporation, S-phase entry, Saos-2; format: cell-based; details: 20 μM, 18 hours, Rb null
Description: as §1
Given the selectivity of 3a described in FIGS. 1 and 2 above for disrupting the Rb:Raf-1 interaction, it was examined if 3a can inhibit the proliferation of cells and whether such an inhibition required a functional Rb gene.

Rb binding to E2F1 = biological target: T1, Rb binding to E2F1 (Homo sapiens, UniProt P06400+Q01094); assay: IP-western, A-549 cells, Rb-E2F1; format: cell-based
T1 construct: endogenous in cells; host or cells: A549
Text: (§4) Lysate preparation, pmmunoprecipitation, and pestern plotting.

A549 cells = assay: Soft agar assay, A549; format: cell-based, human
Description: as §2, §3

[4] = tested on: A549 cells infected with Ad-E2F1; assay: BrdU incorporation, A549 infected with Ad-E2F1; format: cell-based, human; details: 20 μM of 3a for 36 h
Description: as §1
To this end, A549 cells were infected with Ad-E2F1 or Ad-cyclin D, in the presence of 20 μM of 3a for 36 h. Ad-GFP infected cells were used as a control.

SK-MEL-5 cells = assay: Soft agar assay, SK-MEL-5; format: cell-based
Description: as §2, §3

A549-sh6 tumors = assay: A549-sh6 (Rb shRNA) xenograft in nude mice; format: in vivo; details: 150 mpk orally
Description: Animal Studies. Nude mice (Charles River, Wilminton, Mass., USA) were maintained in accordance with Institutional Animal Care and Use Committee (IAUCUC) procedures and guidelines. A549 cells were harvested and resuspended in PBS, and then injected s.c. into the right and left flanks (10×10^6 cells per flank) of 8-week old female nude mice as reported previously (Sun 99). When tumors reached about 100-200 mm^3, animals were dosed intraperitoneally i.p. or orally by gavage with 0.1 mL solution once daily. Control animals received a vehicle, whereas treated animals were given 3a or RRD-238a at the indicated doses. The tumor volumes were determined by measuring the length (l) and the width (w) and calculating the volume (V=lw^2/2) as described previously (Sun 99). Statistical significance between control and treated animals were evaluated using Student's t-test.
Athymic nude mice were implanted with 1×10^7 A549 cells bilaterally and the tumors were allowed to reach 200 mm^3 in size before treatment began. […] Furthermore, to examine whether 3a could affect the growth of tumors lacking Rb in vivo, sh6 and sh8 (shRNA for Rb) cell lines were implanted into the flanks of nude mice. The mice were given 3a orally at 150 mpk and the control groups were administered the vehicle.

[5] = tested on: binding of Raf-1 to Mek1/2; assay: IP-western, A-549 cells, Raf-1-Mek1/2; format: cell-based, human
Text: as §4

[6] = tested on: U251MG glioblastoma cell line; assay: BrdU incorporation, S-phase entry, U251MG; format: cell-based; details: null for p16 and PTEN
Description: as §1

H1650 cells = assay: Soft agar assay, H1650; format: cell-based
Description: as §2, §3

[7] = biological target: T2, Rb:Raf-1 interaction in tumor xenografts (Homo sapiens, UniProt P04049+P06400); assay: IP-Western of tumor lysates, Rb:Raf-1; format: in vivo, nude mice; details: both doses
T2 construct: from tissue; host or cells: A549 xenograft tumors from nude mice
Description: as §4
At the end of the drug treatment, the A549 tumors were removed from the mice and fixed in formalin or snap frozen in liquid nitrogen for further histochemical analysis. The tumors were analyzed by immunohistochemistry staining with hematoxylin and eosin (H&E), TUNEL, Ki-67, phospho-Rb (807,811), and CD-31. […] Tumors were homogenized and lysates were prepared to assess the inhibition of Rb:Raf-1 interaction in vivo.

T2 sequence (P06400 whole entry): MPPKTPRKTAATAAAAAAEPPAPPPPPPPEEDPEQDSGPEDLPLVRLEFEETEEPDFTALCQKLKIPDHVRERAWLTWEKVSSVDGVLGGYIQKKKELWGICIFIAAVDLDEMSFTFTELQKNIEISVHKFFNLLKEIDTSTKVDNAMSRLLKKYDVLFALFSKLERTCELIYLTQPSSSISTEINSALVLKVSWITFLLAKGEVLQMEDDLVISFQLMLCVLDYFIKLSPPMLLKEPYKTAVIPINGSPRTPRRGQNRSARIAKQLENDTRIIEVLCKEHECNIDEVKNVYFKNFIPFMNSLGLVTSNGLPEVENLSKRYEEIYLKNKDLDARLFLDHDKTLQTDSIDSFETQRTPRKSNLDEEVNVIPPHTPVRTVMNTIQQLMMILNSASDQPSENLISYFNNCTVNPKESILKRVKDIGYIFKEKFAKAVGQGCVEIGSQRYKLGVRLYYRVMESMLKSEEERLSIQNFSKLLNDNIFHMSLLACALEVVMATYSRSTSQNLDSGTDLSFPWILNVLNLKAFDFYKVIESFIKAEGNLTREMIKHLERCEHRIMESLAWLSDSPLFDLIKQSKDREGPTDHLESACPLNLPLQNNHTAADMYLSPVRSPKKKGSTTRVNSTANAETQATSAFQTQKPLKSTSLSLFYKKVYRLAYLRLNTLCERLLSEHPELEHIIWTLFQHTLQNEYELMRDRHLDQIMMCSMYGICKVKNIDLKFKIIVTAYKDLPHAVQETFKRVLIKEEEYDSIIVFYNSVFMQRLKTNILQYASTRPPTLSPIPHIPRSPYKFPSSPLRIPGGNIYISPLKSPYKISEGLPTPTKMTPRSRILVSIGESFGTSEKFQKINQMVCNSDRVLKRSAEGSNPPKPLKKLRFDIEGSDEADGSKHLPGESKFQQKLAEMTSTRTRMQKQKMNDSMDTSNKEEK
T2 sequence (P04049 whole entry): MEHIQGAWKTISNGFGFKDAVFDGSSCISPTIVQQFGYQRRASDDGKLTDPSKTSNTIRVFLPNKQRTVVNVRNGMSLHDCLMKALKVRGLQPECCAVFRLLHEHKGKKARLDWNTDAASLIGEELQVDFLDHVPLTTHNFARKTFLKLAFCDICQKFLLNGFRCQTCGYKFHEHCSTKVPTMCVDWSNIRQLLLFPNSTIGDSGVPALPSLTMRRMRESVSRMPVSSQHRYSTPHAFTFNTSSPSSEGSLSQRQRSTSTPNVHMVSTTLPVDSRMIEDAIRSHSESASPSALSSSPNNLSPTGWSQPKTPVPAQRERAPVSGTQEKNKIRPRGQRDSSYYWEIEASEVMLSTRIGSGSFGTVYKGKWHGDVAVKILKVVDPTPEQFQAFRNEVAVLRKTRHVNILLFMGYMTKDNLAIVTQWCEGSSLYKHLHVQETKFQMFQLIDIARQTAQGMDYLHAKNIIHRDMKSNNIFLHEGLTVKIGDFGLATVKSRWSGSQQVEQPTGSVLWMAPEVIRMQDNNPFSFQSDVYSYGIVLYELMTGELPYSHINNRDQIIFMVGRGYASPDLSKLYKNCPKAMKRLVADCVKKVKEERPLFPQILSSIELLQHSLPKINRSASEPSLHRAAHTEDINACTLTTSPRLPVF
T1 sequence (P06400 whole entry): as the sequence (P06400 whole entry) above
T1 sequence (Q01094 whole entry): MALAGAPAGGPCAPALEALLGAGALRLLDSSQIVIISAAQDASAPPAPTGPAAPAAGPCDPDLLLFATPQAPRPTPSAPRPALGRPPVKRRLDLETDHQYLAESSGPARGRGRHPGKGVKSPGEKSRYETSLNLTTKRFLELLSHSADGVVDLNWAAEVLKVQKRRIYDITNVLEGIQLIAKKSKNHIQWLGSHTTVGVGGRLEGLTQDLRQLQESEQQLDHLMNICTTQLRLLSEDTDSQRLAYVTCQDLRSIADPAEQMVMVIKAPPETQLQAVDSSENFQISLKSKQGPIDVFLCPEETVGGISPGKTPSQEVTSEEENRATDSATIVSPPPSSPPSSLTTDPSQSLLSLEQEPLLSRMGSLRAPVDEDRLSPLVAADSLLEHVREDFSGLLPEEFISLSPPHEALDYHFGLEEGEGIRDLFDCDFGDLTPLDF

## Cl.N=C(N)SCc1ccc(Cl)cc1Cl [Compound 3a]
MDA-MB-231 cells
  inhibition of proliferation, MDA-MB-231: 56%
Cyclin D kinase activity
  cyclin D kinase activity: does not inhibit; also recorded: did not affect the kinase activities
[1]
  S-phase entry, U87MG: inhibited S-phase entry
[2]
  inhibition of S-phase entry, H1650: 90%
SK-MEL-28 cells
  adherence-independent growth in soft agar, SK-MEL-28: significantly inhibited the growth
[3]
  S-phase entry (BrdU), A549 sh8: does not inhibit the proliferation; also recorded: no effect
Saos-2 cells
  S-phase entry (BrdU), Saos-2: little effect
Rb binding to E2F1
  Rb binding to E2F1: not affected
A549 cells
  adherence-independent growth in soft agar, A549: significantly inhibited the growth
[4]
  rescue of anti-proliferative activity by E2F1 over expression: sufficient to overcome; also recorded: efficiently overcame the anti-proliferative activity
SK-MEL-5 cells
  adherence-independent growth in soft agar, SK-MEL-5: significantly inhibited the growth
A549-sh6 tumors
  tumor growth, A549-sh6 tumors lacking Rb: unable to inhibit tumor growth; also recorded: did not respond
[5]
  serum-mediated binding of Raf-1 to Mek1/2: not affected
[6]
  S-phase entry, U251MG: inhibited S-phase entry
H1650 cells
  adherence-independent growth in soft agar, H1650: significantly inhibited the growth
[7]
  Rb:Raf-1 interaction in tumor lysates: inhibit the Rb:Raf-1 interaction in tumor lysates
